One data set has as its target HIV-1 RT (Human immunodeficiency virus type 1 group M subtype B, UniProt P03366). Kind of data set: Heteropolymer HIV reverse Transcriptase Assay: Inhibitor IC50 Determination. Particulars: RNA-dependent DNA polymerase activity, biotinylated DNA primer/RNA template, SPA beads, 30°C 30 min. The class given is biochemical. The protocol:
Heteropolymer HIV reverse Transcriptase Assay: Inhibitor IC50 Determination
RNA-dependent DNA polymerase activity was measured using a biotinylated primer oligonucleotide and tritiated dNTP substrate. Newly synthesized DNA was quantified by capturing the biotinylated primer molecules on streptavidin coated Scintillation Proximity Assay (SPA) beads (Amersham). The sequences of the polymerase assay substrate were: 18nt DNA primer, 5′-Biotin/GTC CCT GTT CGG GCG CCA-3′ (SEQ. ID NO. 2); 47nt RNA template, 5′-GGGUCUCUCUGGUUAGACCACUCUAGCAGUGGCGCCCGAACAGGGAC-3′ (SEQ ID NO. 1). The biotinylated DNA primer was obtained from the Integrated DNA Technologies Inc. and the RNA template was synthesized by Dharmacon. The DNA polymerase assay (final volume 50 μl) contained 32 nM biotinylated DNA primer, 64 nM RNA substrate, dGTP, dCTP, dTTP (each at 5 μM), 103 nM [^3H]-dATP (specific activity=[…]), in 45 mM Tris-HCl, pH 8.0, 45 mM NaCl, 2.7 mM Mg(CH3COO)2, 0.045% Triton X-100 w/v, 0.9 mM EDTA. The reactions contained 5 μl of serial compound dilutions in 100% DMSO for IC50 determination and the final concentrations of DMSO were 10%. Reactions were initiated by the addition of 30 μl of the HIV-1-RT enzyme (final concentrations of 1-3 nM). Protein concentrations were adjusted to provide linear product formation for at least 30 min of incubation. After incubation at 30°C for 30 min, the reaction was quenched by addition of 50 μl of 200 mM EDTA (pH 8.0) and 2 mg/ml SA-PVT SPA beads (Amersham, RPNQ0009, reconstituted in 20 mM Tris-HCl, pH 8.0, 100 mM EDTA and 1% BSA). The beads were left to settle overnight and the SPA signals were counted in a 96-well top counter-NXT (Packard). IC50 values were obtained by sigmoidal regression analysis using GraphPad Prism 3.0 (GraphPad Software, Inc.).

pIC50: −log10 of the molar value.

Consider `CC(C)(CN1CCCC1)NC(=O)c1ccc(NC(=O)Cc2ccc(Br)c(Oc3cc(Cl)cc(C#N)c3)c2F)c(Cl)c1` [Compound I-45, 4-{2-[4-Bromo-3-(3-chloro-5-cyano-phenoxy)-2-fluoro-phenyl]-acetylamino}-3-chloro-N-(1,1-dimethyl-2-pyrrolidin-1-yl-ethyl)-benzamide], for which the melting point (in general, the temperature of the solid-liquid transition) worked out at 70 °C. In addition, at HIV-1 RT, the pIC50 (as a rule, the negative decadic logarithm of the IC50, by convention in mol/L) was 8.39.
On the same counts, the results for `CN1CCC(NC(=O)c2ccc(NC(=O)Cc3ccc(Br)c(Oc4cc(Cl)cc(C#N)c4)c3F)c(Cl)c2)C1` (centres unmarked) [Compound I-50, 4-{2-[4-Bromo-3-(3-chloro-5-cyano-phenoxy)-2-fluoro-phenyl]-acetylamino}-3-chloro-N-(1-methyl-pyrrolidin-3-yl)-benzamide] are 204 °C and 8.16.
On the same counts, the results for `N#Cc1cc(Cl)cc(Oc2c(Br)ccc(CC(=O)Nc3ccc(C(=O)NC4CCS(=O)(=O)C4)cc3Cl)c2F)c1` (centres unmarked) [Compound I-55, 4-{2-[4-Bromo-3-(3-chloro-5-cyano-phenoxy)-2-fluoro-phenyl]-acetylamino}-3-chloro-N-(1,1-dioxo-tetrahydro-1λ^6-thiophen-3-yl)-benzamide] are 236.6 °C and 7.79.
The like results for `Cl.N#Cc1cc(Cl)cc(Oc2c(Br)ccc(CC(=O)Nc3ccc(C(=O)NCCN4CCC(F)(F)CC4)cc3Cl)c2F)c1` [Compound I-40, 4-{2-[4-Bromo-3-(3-chloro-5-cyano-phenoxy)-2-fluoro-phenyl]-acetylamino}-3-chloro-N-[2-(4,4-difluoro-piperidin-1-yl)-ethyl]-benzamide; hydrochloride salt] were, in that order, 140.2 to 143.3 °C and 7.43.

Source of the values: patent US7754919B2, “Non-nucleoside reverse transcriptase inhibitors” (Roche Palo Alto LLC, priority 2005, dated 2010).
